This note sets out measurements from patent US9481673B2, “6-alkynyl-pyridine derivatives” (Boehringer Ingelheim International GmbH, priority 2014, dated 2016).

Converted amounts (≈) assume the structure as drawn.

What is called IC50 is the concentration needed to halve the response being measured.

The target of one data set is P450 2C19 (Homo sapiens (Human), UniProt P33261). Nature of the data set: Cytochrome P450 isoenzyme inhibition assay, hydroxylation of Mephenytoin. It is filed as in vitro ADME.
Data set [1] in a line: Solubility measurement (DMSO solution precipitation method). It counts as physicochemical. Particulars: aqueous buffer, kinetic from dmso stock; (S)-isomers; McIlvaine buffer pH 6.8, 24 h shaking at ambient temperature; read-out: Sol pH 6.8.
The target in a further data set is P450 2C9 (Homo sapiens (Human), UniProt P11712). Description: Cytochrome P450 isoenzyme inhibition assay, hydroxylation of Diclofenac. It counts as in vitro ADME.
A further data set addresses P450 3A4 (Homo sapiens (Human), UniProt P08684). Description: Cytochrome P450 isoenzyme inhibition assay, hydroxylation of Midazolam. It counts as in vitro ADME.
A further data set deals with P450 2C8 (Homo sapiens (Human), UniProt P10632). Description: Cytochrome P450 isoenzyme inhibition assay, deethylation of Amodiaquine. It counts as in vitro ADME.
The next data set deals with cIAP1 BIR3 (Homo sapiens (Human), UniProt Q13490). Nature of the data set: cIAP1 BIR3 binding assay (DELFIA), BIR3-SMAC peptide interaction. Particulars: (S)-isomers; BIR3 domain 10 nM, SMAC peptide 10 nM; read-out: cIAP1 BIR-3 IC50.
The target of the next data set is P450 2D6 (Homo sapiens (Human), UniProt P10635). Description: Cytochrome P450 isoenzyme inhibition assay, demethylation of Dextromethorphan. It counts as in vitro ADME. Particulars: measured examples from WO 2013/127729 (Table 1).
The mark [2] stands for this setting: (S)-isomers, human liver microsomes, 37° C.
The mark [3] stands for this setting: measured examples from WO 2013/127729 (Table 1).

With `CN[C@@H](C)C(=O)Nc1ccc(-c2c(-c3cccnc3OC)nc3ccccn23)c(C#Cc2ccc3c(C)nccc3c2)n1` [(S)-16, (2S)-N-{5-[2-(2-methoxypyridin-3-yl)imidazo[1,2-a]-pyridin-3-yl]-6-[2-(1-methylisoquinolin-6-yl)ethynyl]pyridin-2-yl}-2-(methylamino)-propanamide], the IC50 was greater than 50 µM at P450 2C19 (setting [2]), 21 µM against P450 2C9 (setting [2]), greater than 50 µM against P450 3A4 (setting [2]) and 3.4 µM against P450 2C8 (setting [2]). In addition, the solubility kinetic at 24 h in data set [1] was determined as 17 µg/mL (≈ 29.9 µM).

For the compound `CN[C@@H](C)C(=O)Nc1ccc(-c2c(-c3cncn3C)nc3cc(C)ccn23)c(C#Cc2ccc3c(C)nccc3c2)n1` [(S)-4, (2S)-N-{5-[7-methyl-2-(1-methyl-1H-imidazol-5-yl)-imidazo[1,2-a]pyridin-3-yl]-6-[2-(1-methyl-isoquinolin-6-yl)-ethynyl]pyridin-2-yl}-2-(methylamino)-propanamide], the IC50 is 36 µM against P450 2C19 (setting [2]); 27 µM against P450 2C9 (setting [2]); 0.001 µM on cIAP1 BIR3; greater than 50 µM against P450 3A4 (setting [2]); 9.8 µM on P450 2C8 (setting [2]). The solubility kinetic at 24 h in data set [1] turned out to be 39 µg/mL (≈ 70.3 µM).

Take `CN[C@@H](C)C(=O)Nc1ccc(-c2c(-c3cnn(C)c3)nc3cc(C)ccn23)c(C#Cc2ccc3c(C)nccc3c2)n1` [(S)-3, (2S)-N-{5-[7-methyl-2-(1-methyl-1H-pyrazol-4-yl)-imidazo[1,2-a]pyridin-3-yl]-6-[2-(1-methyl-isoquinolin-6-yl)-ethynyl]pyridin-2-yl}-2-(methylamino)-propanamide]: the IC50 was greater than 50 µM against P450 2C19 (setting [2]); greater than 50 µM at P450 2C9 (setting [2]); 0.001 µM at cIAP1 BIR3; greater than 50 µM at P450 3A4 (setting [2]); 14 µM against P450 2C8 (setting [2]). The solubility kinetic at 24 h in data set [1] came out at 1 µg/mL (≈ 1.8 µM).

`CN[C@@H](C)C(=O)Nc1ccc(-c2c(-c3ccnc(OC)c3)nc3cc(C)ccn23)c(C#Cc2ccc3c(ccc(=O)n3C)c2)n1` [(S)-13, (2S)-N-{5-[2-(2-methoxypyridin-4-yl)-7-methylimidazo[1,2-a]pyridin-3-yl]-6-[2-(1-methyl-2-oxo-1,2-dihydroquinolin-6-yl)-ethynyl]pyridin-2-yl}-2-(methylamino)-propanamide]: in data set [1], the solubility kinetic at 24 h was less than 1 µg/mL. Further, the IC50 at P450 2C9 (setting [2]) is greater than 50 µM; on cIAP1 BIR3, 0.001 µM; against P450 3A4 (setting [2]) it was greater than 50 µM; on P450 2C8 (setting [2]), 4.5 µM.

Consider `CN[C@@H](C)C(=O)Nc1ccc(-c2c(-c3ccnc(OC)c3)nc3cc(C)ccn23)c(C#Cc2ccc3c(C)nccc3c2)n1` [(S)-8, (2S)-N-{5-[2-(2-methoxypyridin-4-yl)-7-methylimidazo[1,2-a]pyridin-3-yl]-6-[2-(1-methylisoquinolin-6-yl)ethynyl]pyridin-2-yl}-2-(methyl-amino)propanamide], for which the IC50 at P450 2C19 (setting [2]) was 38 µM; against P450 2C9 (setting [2]), greater than 50 µM; on cIAP1 BIR3 it was 0.001 µM; at P450 3A4 (setting [2]) it was greater than 50 µM; against P450 2C8 (setting [2]), 1.6 µM. Also, in data set [1], the solubility kinetic at 24 h was less than 1 µg/mL.

As to `CNC(C)C(=O)Nc1ccc(-c2c(-c3ccncc3)nc3cc(C)ccn23)c(C#Cc2ccc(-c3ccon3)cc2)n1` (stereo not shown) [Ex 82, reference compound], the IC50 worked out at 2.2 µM against P450 2D6; 4.8 µM on P450 2C19 (setting [3]); 0.4 µM at P450 2C9 (setting [3]); 2.3 µM on P450 3A4 (setting [3]); 0.3 µM against P450 2C8 (setting [3]).

Turning to `CN[C@@H](C)C(=O)Nc1ccc(-c2c(-c3ccnc(C)c3)nc3cc(C)ccn23)c(C#Cc2ccccc2)n1` [(S)-11, (2S)-N-{5-[7-methyl-2-(2-methylpyridin-4-yl)imidazo[1,2-a]-pyridin-3-yl]-6-(2-phenylethynyl)pyridin-2-yl}-2-(methyl-amino)propanamide], the IC50 was 14 µM at P450 2C19 (setting [2]); greater than 50 µM against P450 2C9 (setting [2]); 0.001 µM on cIAP1 BIR3; 46 µM against P450 3A4 (setting [2]); 15 µM on P450 2C8 (setting [2]).

Take `CN[C@@H](C)C(=O)Nc1ccc(-c2c(-c3cccnc3OC)nc3cc(Cl)ccn23)c(C#Cc2ccc3c(C)nccc3c2)n1` [(S)-15, (2S)-N-{5-[7-chloro-2-(2-methoxypyridin-3-yl)imidazo[1,2-a]-pyridin-3-yl]-6-[2-(1-methylisoquinolin-6-yl)ethynyl]pyridin-2-yl}-2-(methylamino)-propanamide]: the IC50 against P450 2C19 (setting [2]) is 32 µM; against P450 2C9 (setting [2]), 19 µM; on cIAP1 BIR3, 0.002 µM; at P450 3A4 (setting [2]) it was greater than 50 µM; against P450 2C8 (setting [2]), 2.2 µM. Besides, the solubility kinetic at 24 h in data set [1] is 20 µg/mL (≈ 33.2 µM).

Turning to `CN[C@@H](C)C(=O)Nc1ccc(-c2c(-c3cnc(C)nc3)nc3cc(C)ccn23)c(C#Cc2ccc3c(C)nccc3c2)n1` [(S)-7, (2S)-N-{5-[7-methyl-2-(2-methylpyrimidin-5-yl)imidazo[1,2-a]-pyridin-3-yl]-6-[2-(1-methylisoquinolin-6-yl)ethynyl]pyridin-2-yl}-2-(methylamino)-propanamide], the IC50 was greater than 50 µM on P450 2C19 (setting [2]); greater than 50 µM against P450 2C9 (setting [2]); 0.001 µM at cIAP1 BIR3; greater than 50 µM against P450 3A4 (setting [2]); greater than 50 µM on P450 2C8 (setting [2]). In addition, the solubility kinetic at 24 h in data set [1] is less than 1 µg/mL.

Take `CN[C@@H](C)C(=O)Nc1ccc(-c2c(-c3ccc(OC)nc3)nc3cc(C)ccn23)c(C#Cc2ccc3c(C)nccc3c2)n1` [(S)-9, (2S)-N-{5-[2-(6-methoxypyridin-3-yl)-7-methylimidazo[1,2-a]pyridin-3-yl]-6-[2-(1-methylisoquinolin-6-yl)ethynyl]pyridin-2-yl}-2-(methyl-amino)propanamide]: the IC50 on P450 2C19 (setting [2]) is greater than 50 µM; against P450 2C9 (setting [2]) it was greater than 50 µM; on cIAP1 BIR3, 0.001 µM; against P450 3A4 (setting [2]), greater than 50 µM; against P450 2C8 (setting [2]), 15 µM. In addition, the solubility kinetic at 24 h in data set [1] came out at 2 µg/mL (≈ 3.44 µM).

Take `CN[C@@H](C)C(=O)Nc1ccc(-c2c(-c3ccc(OC)nc3)nc3cc(C)ccn23)c(C#Cc2ccc3c(ccc(=O)n3C)c2)n1` [(S)-14, (2S)-N-{5-[2-(6-methoxypyridin-3-yl)-7-methylimidazo[1,2-a]pyridin-3-yl]-6-[2-(1-methyl-2-oxo-1,2-dihydroquinolin-6-yl)-ethynyl]pyridin-2-yl}-2-(methylamino)-propanamide]: the IC50 against P450 2C19 (setting [2]) was greater than 50 µM; on P450 2C9 (setting [2]) it was greater than 50 µM; at cIAP1 BIR3, 0.001 µM; at P450 3A4 (setting [2]), greater than 50 µM; on P450 2C8 (setting [2]) it was greater than 50 µM. The solubility kinetic at 24 h in data set [1] was less than 1 µg/mL.

In the case of `CN[C@@H](C)C(=O)Nc1ccc(-c2c(-c3cnc(C)nc3)nc3cc(C)ccn23)c(C#Cc2ccc3c(ccc(=O)n3C)c2)n1` [(S)-12, (2S)-N-{5-[7-methyl-2-(2-methylpyrimidin-5-yl)imidazo[1,2-a]-pyridin-3-yl]-6-[2-(1-methyl-2-oxo-1,2-dihydroquinolin-6-yl)-ethynyl]pyridin-2-yl}-2-(methylamino)-propanamide], the IC50 against P450 2C19 (setting [2]) is greater than 50 µM; against P450 2C9 (setting [2]), greater than 50 µM; at cIAP1 BIR3 it was 0.002 µM; at P450 3A4 (setting [2]) it was greater than 50 µM; at P450 2C8 (setting [2]), greater than 50 µM. Also, the solubility kinetic at 24 h in data set [1] was less than 1 µg/mL.

In the case of `CN[C@@H](C)C(=O)Nc1ccc(-c2c(-c3cccnc3OC)nc3cc(C)ccn23)c(C#Cc2ccc3c(ccc(=O)n3C)c2)n1` [(S)-10, (2S)-N-{5-[2-(2-methoxypyridin-3-yl)-7-methylimidazo[1,2-a]pyridin-3-yl]-6-[2-(1-methyl-2-oxo-1,2-dihydroquinolin-6-yl)-ethynyl]pyridin-2-yl}-2-(methylamino)-propanamide], the IC50 against P450 2C19 (setting [2]) is greater than 50 µM; on cIAP1 BIR3, 0.001 µM; against P450 3A4 (setting [2]), greater than 50 µM; against P450 2C8 (setting [2]) it was 9.3 µM. In data set [1], the solubility kinetic at 24 h stood at 35 µg/mL (≈ 58.6 µM).

Consider `CN[C@@H](C)C(=O)Nc1ccc(-c2c(-c3cccnc3C)nc3cc(C)ccn23)c(C#Cc2ccc3c(C)nccc3c2)n1` [(S)-5, (2S)-N-{5-[7-methyl-2-(2-methylpyridin-3-yl)imidazo[1,2-a]-pyridin-3-yl]-6-[2-(1-methylisoquinolin-6-yl)ethynyl]pyridin-2-yl}-2-(methylamino)-propanamide], for which the IC50 against P450 2C19 (setting [2]) was greater than 50 µM; at P450 2C9 (setting [2]) it was greater than 50 µM; at cIAP1 BIR3, 0.002 µM; at P450 3A4 (setting [2]), greater than 50 µM; at P450 2C8 (setting [2]), 1.3 µM. For the same compound, the solubility kinetic at 24 h in data set [1] is less than 1 µg/mL.

Consider `CN[C@@H](C)C(=O)Nc1ccc(-c2c(-c3cccnc3OC)nc3cc(C)ccn23)c(C#Cc2ccc3c(C)nccc3c2)n1` [(S)-1, (2S)-N-{5-[2-(2-methoxypyridin-3-yl)-7-methylimidazo[1,2-a]pyridin-3-yl]-6-[2-(1-methylisoquinolin-6-yl)ethynyl]pyridin-2-yl}-2-(methyl-amino)propanamide], for which the IC50 against P450 2C19 (setting [2]) was greater than 50 µM; against P450 2C9 (setting [2]), 38 µM; on cIAP1 BIR3, 0.001 µM; against P450 3A4 (setting [2]) it was greater than 50 µM; at P450 2C8 (setting [2]), 11 µM. The solubility kinetic at 24 h in data set [1] was determined as 35 µg/mL (≈ 60.2 µM).

Consider `CN[C@@H](C)C(=O)Nc1ccc(-c2c(-c3ccc(C)nc3)nc3cc(C)ccn23)c(C#Cc2ccc3c(C)nccc3c2)n1` [(S)-6, (2S)-N-{5-[7-methyl-2-(6-methylpyridin-3-yl)imidazo[1,2-a]-pyridin-3-yl]-6-[2-(1-methylisoquinolin-6-yl)ethynyl]pyridin-2-yl}-2-(methylamino)-propanamide], for which the IC50 on P450 2C19 (setting [2]) is greater than 50 µM; against P450 2C9 (setting [2]), greater than 50 µM; on cIAP1 BIR3, 0.001 µM; at P450 3A4 (setting [2]), greater than 50 µM; at P450 2C8 (setting [2]), 25 µM. Besides, the solubility kinetic at 24 h in data set [1] was 1 µg/mL (≈ 1.77 µM).
